Assay results published in patent US9073975B2, “Cyclic peptides, their preparation and their use as inhibitors of the platelet adhesion” (SANOFI, priority 2010, dated 2015).
Non-standard residues stand in square brackets, D forms with d. Residues, ends and D or L forms follow the SMILES beside them. tBuAla = CC(C)(C)C[C@H](N)C(=O)O; Chg = N[C@H](C(=O)O)C1CCCCC1; Ac6c = NC1(C(=O)O)CCCCC1; Nle = CCCC[C@H](N)C(=O)O; Orn = NCCC[C@H](N)C(=O)O; Dab = NCC[C@H](N)C(=O)O; Nva = CCC[C@H](N)C(=O)O; Abu = CC[C@H](N)C(=O)O; Dap = NC[C@H](N)C(=O)O; Ahp = NCCCCCCC(=O)O

Target: T1, recombinant human vWF-A1 domain (Homo sapiens, UniProt P07359)
T1 construct: whole blood drawn from voluntary donors; made in house; host or cells: E. coli (vWF-A1); washed platelets from human donor blood (GPIb, endogenous)
Test: Static human platelet adhesion to recombinant human vWF-A1 domain
Type: cell-based
Conditions: washed calcein AM labeled human platelets, static conditions, 1.5 h adhesion; read-out: Activity (IC50 for inhibition of the binding of platelets to vWF A1 domain)
Protocol: The activity of compounds of the formula I can be shown by procedures known in the art, for example by determining their inhibition of the binding of platelets to vWF A1 domain in an appropriate assay. To this end, assay plates can be coated with vWF-A1 domain. […] Then fluorescence-labeled thrombocytes are added and incubated for 90 minutes. In a complex washing procedure all non-bound thrombocytes are removed and the plates are measured, for example in a laser-based reader Acumen Explorer or a bulk reader like Spectramax. […] To assess the effect of compounds on the interaction of the GPIb complex on platelets with vWF, an assay system was used measuring binding of human platelets to recombinant human vWF-A1 domain under static conditions in the presence and absence of the compounds. […] Platelet rich plasma was carefully removed, transferred to a fresh container and spun down for 15 min at 120 g. Platelet rich plasma was carefully transferred again to fresh containers, PGE1 (0.5 μg/ml, Sigma) was added and the suspension was allowed to rest for 5 min. This was followed by another centrifugation step for 15 min at 360 g. The supernatant was discarded and the cell pellets were carefully resuspended in tyrode buffer (NaCl, 137 mM (Sigma S-3014); KCl, 2.7 mM (Sigma P-9541); NaHCO3,12 mM ([…] 31437); NaH2PO4×2H2O, 0.36 mM (Merck 6345); […] After 5 min of resting the suspension was spun down for 15 min at 300 g. The supernatant was discarded and the pellets were carefully resuspended in TBS buffer (Tris-HCl, 50 mM (Fluka 93371); NaCl, 120 mM (Sigma S-3014); KCl, 2.7 mM (Sigma P-9541); CaCl2, 0.05 mM (Sigma C-3306); MgCl2×6 H2O, 2 mM (Sigma M-2670); […] The platelet count was adjusted to 2×10^5 cells/μl, and the suspensions from individual donors were pooled at this stage. The platelets were allowed to rest for 30 min at room temperature before calcein AM (2.5 μM per 2×10^5 cells/μl (Molecular Probes C-3099)) was added. This was followed by 15 min incubation in the dark. Cells were diluted to 5×10^4 cells/μl and ReoPro (3 μg/ml (Centocor B. V., Leiden, N L)) was added, followed by a 10 min incubation period in the dark before adding the platelets to the assay plates. 96 well plates (Greiner hb, black, clear bottom, F, 655097) were coated with human recombinant vWF-A1 domain (1.5 μg/well, AA 475-706, expressed in E. coli) in Tris buffer (pH 7.4; Tris-HCl, 25 mM; NaCl, 150 mM) and incubated for 1 h at room temperature. After washing the wells 3× with TBS, blocking buffer (TBS with 5% BSA) was added followed by an incubation for 1 h. The wells were washed again 3× with TBS before 200 μl TBS were added to each well, preventing them from drying out. TBS was flicked out and serial dilutions of the test compound were added. The washed and calcein AM labeled thrombocytes were added to the wells (2.5×10^6 cells/well). Following an adhesion period of 1.5 h in the dark the wells were washed 3× with TBS. Measurement of fluorescence per well was performed in a SpectraMax M5 reader (Molecular Devices). From the raw data % inhibition and IC50 values were calculated.

T1 sequence (P07359 17-652): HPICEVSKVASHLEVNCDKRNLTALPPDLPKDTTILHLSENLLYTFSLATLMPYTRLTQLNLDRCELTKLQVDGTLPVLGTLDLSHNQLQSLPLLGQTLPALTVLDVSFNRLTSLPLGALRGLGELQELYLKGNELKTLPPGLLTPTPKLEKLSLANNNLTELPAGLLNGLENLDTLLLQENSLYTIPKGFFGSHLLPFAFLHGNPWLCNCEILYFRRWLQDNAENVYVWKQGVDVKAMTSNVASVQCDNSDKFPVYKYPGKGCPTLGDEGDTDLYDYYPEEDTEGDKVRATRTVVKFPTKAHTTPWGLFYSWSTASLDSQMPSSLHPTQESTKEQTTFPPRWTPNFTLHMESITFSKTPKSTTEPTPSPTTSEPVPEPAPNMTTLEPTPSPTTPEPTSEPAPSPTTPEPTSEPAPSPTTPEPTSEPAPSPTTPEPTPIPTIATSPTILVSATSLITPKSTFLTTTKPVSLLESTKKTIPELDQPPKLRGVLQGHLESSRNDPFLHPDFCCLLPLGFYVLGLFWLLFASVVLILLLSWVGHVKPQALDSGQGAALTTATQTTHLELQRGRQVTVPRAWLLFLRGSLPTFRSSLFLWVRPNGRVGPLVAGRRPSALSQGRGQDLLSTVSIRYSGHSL
T1 sequence (P13224 26-206 partner): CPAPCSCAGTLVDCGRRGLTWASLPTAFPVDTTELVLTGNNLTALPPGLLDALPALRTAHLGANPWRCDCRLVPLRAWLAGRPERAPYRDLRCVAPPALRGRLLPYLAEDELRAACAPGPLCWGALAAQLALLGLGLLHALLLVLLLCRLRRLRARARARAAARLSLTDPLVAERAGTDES
T1 sequence (P14770 17-177 partner): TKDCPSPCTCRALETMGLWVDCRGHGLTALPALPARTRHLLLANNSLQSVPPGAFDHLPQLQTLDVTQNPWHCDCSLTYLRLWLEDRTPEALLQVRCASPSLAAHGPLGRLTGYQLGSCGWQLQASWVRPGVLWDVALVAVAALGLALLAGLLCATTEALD

IC50 [nM] | Compound
< 1000 | CSCC[C@@H]1NC(=O)[C@H](CCCNC(=N)N)NC(=O)[C@H](CCC(=O)O)NC(=O)[C@H](CCN)NC(=O)CCCCCCNC(=O)[C@H](CC(C)C)NC(=O)[C@H](CC(N)=O)NC(=O)[C@H](Cc2c[nH]cn2)NC(=O)[C@H](CC(C)C)NC(=O)[C@H](C)NC1=O [Example 24, Cyclo[Leu-His-Asn-Leu-NH—(CH2)6—CO-Dbu-Glu-Arg-Met-Ala]] (cyclo(ALHNL[Ahp][Dab]ERM))
< 1000 | CSCC[C@@H]1NC(=O)[C@H](CCCNC(=N)N)NC(=O)[C@H](CCC(=O)O)NC(=O)[C@H](CCC(N)=O)NC(=O)CCCCCCNC(=O)[C@H](CC(C)C)NC(=O)[C@H](CC(N)=O)NC(=O)[C@H](Cc2c[nH]cn2)NC(=O)[C@H](CC(C)C)NC(=O)[C@H](C)NC1=O [Example 25, Cyclo[Leu-His-Asn-Leu-NH—(CH2)6—CO-Gln-Glu-Arg-Met-Ala]] (cyclo(ALHNL[Ahp]QERM))
< 1000 | CSCC[C@@H]1NC(=O)[C@H](CCCN)NC(=O)[C@H](CCC(=O)O)NC(=O)[C@H]([C@@H](C)O)NC(=O)CCCCCCNC(=O)[C@H](CC(C)C)NC(=O)[C@H](CC(N)=O)NC(=O)[C@H](Cc2c[nH]cn2)NC(=O)[C@H](CC(C)C)NC(=O)[C@H](C)NC1=O [Example 28, Cyclo[Leu-His-Asn-Leu-NH—(CH2)6—CO-Thr-Glu-Orn-Met-Ala]] (cyclo(ALHNL[Ahp]TE[Orn]M))
1000 to 10000 | CSCC[C@@H]1NC(=O)[C@H](CN)NC(=O)[C@H](CCC(=O)O)NC(=O)[C@H]([C@@H](C)O)NC(=O)CCCCCCNC(=O)[C@H](CC(C)C)NC(=O)[C@H](CC(N)=O)NC(=O)[C@H](Cc2c[nH]cn2)NC(=O)[C@H](CC(C)C)NC(=O)[C@H](C)NC1=O [Example 29, Cyclo[Leu-His-Asn-Leu-NH—(CH2)6—CO-Thr-Glu-Dpr-Met-Ala]] (cyclo(ALHNL[Ahp]TE[Dap]M))
1000 to 10000 | CSCC[C@@H]1NC(=O)[C@H](CCCNC(=N)N)NC(=O)[C@H](CCC(=O)O)NC(=O)[C@H]([C@@H](C)O)NC(=O)CCCCCCNC(=O)[C@H](CC(C)C)NC(=O)[C@H](CC(N)=O)NC(=O)[C@H](Cc2c[nH]cn2)NC(=O)[C@H](CC(C)C)NC(=O)[C@H](CCCNC(=N)N)NC1=O [Example 30, Cyclo[Leu-His-Asn-Leu-NH—(CH2)6—CO-Thr-Glu-Arg-Met-Arg]] (cyclo([Ahp]TERMRLHNL))
1000 to 10000 | CCC[C@@H]1NC(=O)[C@H](CCSC)NC(=O)[C@H](CCCNC(=N)N)NC(=O)[C@H](CCC(=O)O)NC(=O)[C@H]([C@@H](C)O)NC(=O)CCCCCCNC(=O)[C@H](CC(C)C)NC(=O)[C@H](CC(N)=O)NC(=O)[C@H](Cc2c[nH]cn2)NC(=O)[C@H](CC(C)C)NC1=O [Example 31, Cyclo[Leu-His-Asn-Leu-NH—(CH2)6—CO-Thr-Glu-Arg-Met-Nva]] (cyclo([Ahp]TERM[Nva]LHNL))
< 1000 | CSCC[C@@H]1NC(=O)[C@H](CCCNC(=N)N)NC(=O)[C@H](CCC(=O)O)NC(=O)[C@H]([C@@H](C)O)NC(=O)CCCCCCNC(=O)[C@H](CC(C)C)NC(=O)[C@H](CC(N)=O)NC(=O)[C@H](Cc2c[nH]cn2)NC(=O)[C@H](CC(C)C)NC(=O)[C@H](CN)NC1=O [Example 32, Cyclo[Leu-His-Asn-Leu-NH—(CH2)6—CO-Thr-Glu-Arg-Met-Dpr]] (cyclo([Ahp]TERM[Dap]LHNL))
1000 to 10000 | CSCC[C@@H]1NC(=O)[C@H](CCCNC(=N)N)NC(=O)[C@H](CCC(=O)O)NC(=O)[C@H]([C@@H](C)O)NC(=O)CCCCCCNC(=O)[C@H](CC(C)C)NC(=O)[C@H](CC(N)=O)NC(=O)[C@@H](Cc2c[nH]cn2)NC(=O)[C@H](CC(C)C)NC(=O)[C@H](C)NC1=O [Example 33, Cyclo[Leu-D-His-Asn-Leu-NH—(CH2)6—CO-Thr-Glu-Arg-Met-Ala]] (cyclo(AL[dH]NL[Ahp]TERM))
1000 to 10000 | CSCC[C@@H]1NC(=O)[C@H](CCCNC(=N)N)NC(=O)[C@H](CCC(=O)O)NC(=O)[C@H]([C@@H](C)O)NC(=O)CCCCCCNC(=O)[C@H](CC(C)C)NC(=O)[C@H](CC(N)=O)NC(=O)[C@H](CCCN)NC(=O)[C@H](CC(C)C)NC(=O)[C@H](C)NC1=O [Example 34, Cyclo[Leu-Orn-Asn-Leu-NH—(CH2)6—CO-Thr-Glu-Arg-Met-Ala]] (cyclo(AL[Orn]NL[Ahp]TERM))
< 1000 | CSCC[C@@H]1NC(=O)[C@H](CCCNC(=N)N)NC(=O)[C@H](CCC(=O)O)NC(=O)[C@H]([C@@H](C)O)NC(=O)CCCCCCNC(=O)[C@H](CC(C)C)NC(=O)[C@H](CC(N)=O)NC(=O)[C@H](Cc2c[nH]cn2)NC(=O)[C@H](CC(C)(C)C)NC(=O)[C@H](C)NC1=O [Example 36, Cyclo[Npg-His-Asn-Leu-NH—(CH2)6—CO-Thr-Glu-Arg-Met-Ala]] (cyclo(A[tBuAla]HNL[Ahp]TERM))
1000 to 10000 | CSCC[C@@H]1NC(=O)[C@H](CCCNC(=N)N)NC(=O)[C@H](CCC(=O)O)NC(=O)[C@H]([C@@H](C)O)NC(=O)CCCCCCNC(=O)[C@H](CC(C)C)NC(=O)[C@H](CC(N)=O)NC(=O)[C@H](Cc2c[nH]cn2)NC(=O)C2(CCCCC2)NC(=O)[C@H](C)NC1=O [Example 37, Cyclo[Ac6-His-Asn-Leu-NH—(CH2)6—CO-Thr-Glu-Arg-Met-Ala]] (cyclo(A[Ac6c]HNL[Ahp]TERM))
< 1000 | CC(C)C[C@@H]1NC(=O)[C@H](C)NC(=O)[C@H](CC(C)C)NC(=O)[C@H](CCCNC(=N)N)NC(=O)[C@H](CCC(=O)O)NC(=O)[C@H]([C@@H](C)O)NC(=O)CCCCCCNC(=O)[C@H](CC(C)C)NC(=O)[C@H](CC(N)=O)NC(=O)[C@H](Cc2c[nH]cn2)NC1=O [Example 38, Cyclo[Leu-His-Asn-Leu-NH—(CH2)6—CO-Thr-Glu-Arg-Leu-Ala]] (cyclo(ALHNL[Ahp]TERL))
1000 to 10000 | CC(C)C[C@@H]1NC(=O)[C@H](C)NC(=O)[C@H](C2CCCCC2)NC(=O)[C@H](CCCNC(=N)N)NC(=O)[C@H](CCC(=O)O)NC(=O)[C@H]([C@@H](C)O)NC(=O)CCCCCCNC(=O)[C@H](CC(C)C)NC(=O)[C@H](CC(N)=O)NC(=O)[C@H](Cc2c[nH]cn2)NC1=O [Example 39, Cyclo[Leu-His-Asn-Leu-NH—(CH2)6—CO-Thr-Glu-Arg-Chg-Ala]] (cyclo(ALHNL[Ahp]TER[Chg]))
< 1000 | CC(C)C[C@@H]1NC(=O)[C@H](C)NC(=O)[C@H](C)NC(=O)[C@H](CCCNC(=N)N)NC(=O)[C@H](CCC(=O)O)NC(=O)[C@H]([C@@H](C)O)NC(=O)CCCCCCNC(=O)[C@H](CC(C)C)NC(=O)[C@H](CC(N)=O)NC(=O)[C@H](Cc2c[nH]cn2)NC1=O [Example 40, Cyclo[Leu-His-Asn-Leu-NH—(CH2)6—CO-Thr-Glu-Arg-Ala-Ala]] (cyclo(AALHNL[Ahp]TER))
< 1000 | CC(C)C[C@@H]1NC(=O)[C@H](C)NC(=O)[C@H](CCC(N)=O)NC(=O)[C@H](CCCNC(=N)N)NC(=O)[C@H](CCC(=O)O)NC(=O)[C@H]([C@@H](C)O)NC(=O)CCCCCCNC(=O)[C@H](CC(C)C)NC(=O)[C@H](CC(N)=O)NC(=O)[C@H](Cc2c[nH]cn2)NC1=O [Example 41, Cyclo[Leu-His-Asn-Leu-NH—(CH2)6—CO-Thr-Glu-Arg-Gln-Ala]] (cyclo(ALHNL[Ahp]TERQ))
< 1000 | CC[C@@H]1NC(=O)[C@H](CCCNC(=N)N)NC(=O)[C@H](CCC(=O)O)NC(=O)[C@H]([C@@H](C)O)NC(=O)CCCCCCNC(=O)[C@H](CC(C)C)NC(=O)[C@H](CC(N)=O)NC(=O)[C@H](Cc2c[nH]cn2)NC(=O)[C@H](CC(C)C)NC(=O)[C@H](C)NC1=O [Example 42, Cyclo[Leu-His-Asn-Leu-NH—(CH2)6—CO-Thr-Glu-Arg-Abu-Ala]] (cyclo(ALHNL[Ahp]TER[Abu]))
< 1000 | CCCC[C@@H]1NC(=O)[C@H](CCCNC(=N)N)NC(=O)[C@H](CCC(=O)O)NC(=O)[C@H]([C@@H](C)O)NC(=O)CCCCCCNC(=O)[C@H](CC(C)C)NC(=O)[C@H](CC(N)=O)NC(=O)[C@H](Cc2c[nH]cn2)NC(=O)[C@H](CC(C)C)NC(=O)[C@H](C)NC1=O [Example 43, Cyclo[Leu-His-Asn-Leu-NH—(CH2)6—CO-Thr-Glu-Arg-Nle-Ala]] (cyclo(ALHNL[Ahp]TER[Nle]))
